{
  "source": "ChEMBL document CHEMBL5055661",
  "about": "“Cell-Based Drug Discovery: Identification and Optimization of Small Molecules that Reduce c-MYC Protein Levels in Cells” (J Med Chem, 2021)",
  "key": {"[1]": {"experiment": "Reduction in cMyc expression in human COLO 320HSR cells incubated for 24 hrs by HTRF assay", "assay_type": "functional, cell-based"}, "[2]": {"experiment": "Distribution coefficient, logD of the compound by chromatography", "assay_type": "physicochemical", "conditions": "octanol/water"}, "[3]": {"experiment": "Clearance in Han Wistar rat at 0.54 mg/kg, iv by LC-MS/MS analysis", "assay_type": "ADME, organism-based", "conditions": "in vivo"}, "[4]": {"experiment": "Half life in Han Wistar rat at 0.54 mg/kg, iv by LC-MS/MS analysis", "assay_type": "ADME, organism-based", "conditions": "in vivo"}, "[5]": {"experiment": "Volume of distribution at steady state in Han Wistar rat at 0.54 mg/kg, iv by LC-MS/MS analysis", "assay_type": "ADME, organism-based", "conditions": "in vivo, read-out: Vdss"}, "[6]": {"experiment": "Oral bioavailability in Han Wistar rat at 5.3 mg/kg by LC-MS/MS analysis", "assay_type": "ADME, organism-based", "conditions": "in vivo"}, "[7]": {"experiment": "Clearance in Han Wistar rat at 1.9 mg/kg, iv by LC-MS/MS analysis", "assay_type": "ADME, organism-based", "conditions": "in vivo"}, "[8]": {"experiment": "AUC (0 to t) in Han Wistar rat at 5.3 mg/kg, po by LC-MS/MS analysis", "assay_type": "ADME, organism-based", "design": "dose 5.3 mg/kg, route po", "conditions": "in vivo"}, "[9]": {"experiment": "Volume of distribution at steady state in Han Wistar rat at 1.9 mg/kg, iv by LC-MS/MS analysis", "assay_type": "ADME, organism-based", "conditions": "in vivo, read-out: Vdss"}, "[10]": {"experiment": "Half life in Han Wistar rat at 1.9 mg/kg, iv by LC-MS/MS analysis", "assay_type": "ADME, organism-based", "conditions": "in vivo"}, "[11]": {"experiment": "Permeability of the compound across artificial membrane by AMP assay", "assay_type": "ADME", "conditions": "PAMPA; read-out: permeability"}},
  "data": [
    {"smiles": "CCc1ncc(Cn2c(-c3ccc(N(CC)CC)nc3)nc3ccccc32)o1", "values": [
      {"measurement": "EC50", "setting": "[1]", "result": 3160, "unit": "nM"}
    ]},
    {"smiles": "CCOc1cccc2nc(-c3ccc(N(CC)CC)nc3)n(Cc3ccn(C)n3)c12", "values": [
      {"measurement": "EC50", "setting": "[1]", "result": 398, "unit": "nM"}
    ]},
    {"smiles": "CCN(CC)c1ccc(-c2nc3ccccc3n2Cc2ccn(C)n2)cn1", "values": [
      {"measurement": "EC50", "setting": "[1]", "result": 251, "unit": "nM"}
    ]},
    {"smiles": "CCN(CC)c1ccc(-c2nc3ccccc3n2Cc2cc[nH]n2)cn1", "values": [
      {"measurement": "EC50", "setting": "[1]", "result": 2510, "unit": "nM"}
    ]},
    {"smiles": "CCN(CC)c1ccc(-c2nc3cc(C#N)ccc3n2Cc2ccn(CC)n2)cn1", "values": [
      {"measurement": "EC50", "setting": "[1]", "result": 1000, "unit": "nM"}
    ]},
    {"smiles": "CCN(CC)c1ccc(-c2nc3c(Cl)cccc3n2Cc2ccn(CC)n2)cn1", "values": [
      {"measurement": "EC50", "setting": "[1]", "result": 200, "unit": "nM"}
    ]},
    {"smiles": "C[C@H]1CN(C)C[C@@H](Cn2c(-c3ccc(N4[C@@H](C)CC[C@@H]4C)nc3)nc3ccccc32)O1", "values": [
      {"measurement": "chromatographic logD", "setting": "[2]", "result": 5.6},
      {"measurement": "EC50", "setting": "[1]", "result": 1580, "unit": "nM"}
    ]},
    {"smiles": "COc1cccc2nc(-c3ccc(N4[C@@H](C)CC[C@@H]4C)nc3)n(Cc3ccn(C)n3)c12", "values": [
      {"measurement": "clearance", "setting": "[3]", "result": 190, "unit": "mL/min/kg"},
      {"measurement": "half-life", "setting": "[4]", "result": 1, "unit": "h"},
      {"measurement": "Vd", "setting": "[5]", "result": 6, "unit": "L/kg"},
      {"measurement": "EC50", "setting": "[1]", "result": 25.1, "unit": "nM"}
    ]},
    {"smiles": "COc1cccc2nc(-c3ccc(N4[C@@H](C)CC[C@@H]4C)nc3)n(C[C@@H]3CN(C)C[C@H](C)O3)c12", "values": [
      {"measurement": "chromatographic logD", "setting": "[2]", "result": 6.8},
      {"measurement": "EC50", "setting": "[1]", "result": 79.4, "unit": "nM"}
    ]},
    {"smiles": "CCOCCn1c(-c2ccc(N(CC)CC)nc2)nc2ccccc21", "values": [
      {"measurement": "EC50", "setting": "[1]", "result": 398, "unit": "nM"}
    ]},
    {"smiles": "CCOCCn1c(-c2ccc(N3CCC[C@@H]3C)nc2)nc2ccccc21", "values": [
      {"measurement": "EC50", "setting": "[1]", "result": 1260, "unit": "nM"}
    ]},
    {"smiles": "COc1cccc2nc(-c3ccc(N4[C@@H](C)CC[C@@H]4C)nc3)n(C[C@@H]3CNCCO3)c12", "values": [
      {"measurement": "chromatographic logD", "setting": "[2]", "result": 4},
      {"measurement": "bioavailability", "setting": "[6]", "result": 63, "unit": "%"},
      {"measurement": "clearance", "setting": "[7]", "result": 35, "unit": "mL/min/kg"},
      {"measurement": "AUC(0-t)", "setting": "[8]", "result": 1600, "unit": "ng·h/mL"},
      {"measurement": "Vd", "setting": "[9]", "result": 6.3, "unit": "L/kg"},
      {"measurement": "half-life", "setting": "[10]", "result": 5.1, "unit": "h"},
      {"measurement": "EC50", "setting": "[1]", "result": 126, "unit": "nM"}
    ]},
    {"smiles": "CCN(CC)c1ccc(-c2nc3c(C(N)=O)cccc3n2Cc2ccn(CC)n2)cn1", "values": [
      {"measurement": "EC50", "setting": "[1]", "result": 2000, "unit": "nM"}
    ]},
    {"smiles": "CCn1ccc(Cn2c(-c3ccc(N4CCCC4C)nc3)nc3ccccc32)n1", "note": "(stereo not given)", "values": [
      {"measurement": "EC50", "setting": "[1]", "result": 1580, "unit": "nM"}
    ]},
    {"smiles": "CCN(CC)c1ccc(-c2nc3cc(C(N)=O)ccc3n2CCOC(C)(C)C)cn1", "values": [
      {"measurement": "EC50", "setting": "[1]", "result": 158, "unit": "nM"}
    ]},
    {"smiles": "CCN(CC)c1ccc(-c2nc3cccc(C#N)c3n2Cc2ccn(C)n2)cn1", "values": [
      {"measurement": "EC50", "setting": "[1]", "result": 2000, "unit": "nM"}
    ]},
    {"smiles": "CCN(CC)c1ccc(-c2nc3cc(C(=O)N(C)C)ccc3n2CCOC(C)(C)C)cn1", "values": [
      {"measurement": "EC50", "setting": "[1]", "result": 3980, "unit": "nM"}
    ]},
    {"smiles": "CCNC(=O)c1cc(OC)c2c(c1)nc(-c1ccc(N3[C@@H](C)CC[C@@H]3C)nc1)n2C[C@@H]1CNCCO1", "values": [
      {"measurement": "Papp", "setting": "[11]", "result": 1.9, "unit": "×10⁻⁶ cm/s"}
    ]},
    {"smiles": "CCN(CC)c1ccc(-c2nc3cccc(OC)c3n2Cc2ccn(C)n2)cn1", "values": [
      {"measurement": "EC50", "setting": "[1]", "result": 79.4, "unit": "nM"}
    ]},
    {"smiles": "CCN(CC)c1ccc(-c2nc3ccccc3n2Cc2coc(C)n2)cn1", "values": [
      {"measurement": "EC50", "setting": "[1]", "result": 501, "unit": "nM"}
    ]},
    {"smiles": "CCN(CC)c1ccc(-c2cc3ccccc3n2Cc2ccn(CC)n2)cn1", "values": [
      {"measurement": "EC50", "setting": "[1]", "result": 7940, "unit": "nM"}
    ]},
    {"smiles": "CCc1nc(Cn2c(-c3ccc(N(CC)CC)nc3)nc3ccccc32)cs1", "values": [
      {"measurement": "EC50", "setting": "[1]", "result": 1580, "unit": "nM"}
    ]},
    {"smiles": "CCN(CC)c1ccc(-c2nc3cc(C(=O)NCC4CC4)ccc3n2CCOC(C)(C)C)cn1", "values": [
      {"measurement": "EC50", "setting": "[1]", "result": 158, "unit": "nM"}
    ]},
    {"smiles": "CCN(CC)c1ccc(-c2nc3cccc(C)c3n2Cc2ccn(C)n2)cn1", "values": [
      {"measurement": "EC50", "setting": "[1]", "result": 1000, "unit": "nM"}
    ]},
    {"smiles": "CCN(CC)c1ccc(-c2nc3ccccc3n2Cc2cccc(C)n2)cn1", "values": [
      {"measurement": "EC50", "setting": "[1]", "result": 2510, "unit": "nM"}
    ]},
    {"smiles": "CCOCCn1c(-c2ccc(N3CCC[C@H]3C)nc2)nc2ccccc21", "values": [
      {"measurement": "EC50", "setting": "[1]", "result": 12600, "unit": "nM"}
    ]},
    {"smiles": "COc1cc(C(N)=O)cc2nc(-c3ccc(N4[C@@H](C)CC[C@@H]4C)nc3)n(C[C@@H]3CN(C)CCO3)c12", "values": [
      {"measurement": "EC50", "setting": "[1]", "result": 79.4, "unit": "nM"}
    ]},
    {"smiles": "CCN(C)c1ccc(-c2nc3ccccc3n2Cc2ccn(CC)n2)cn1", "values": [
      {"measurement": "EC50", "setting": "[1]", "result": 3980, "unit": "nM"}
    ]},
    {"smiles": "CCc1nc(Cn2c(-c3ccc(N(CC)CC)nc3)nc3ccccc32)co1", "values": [
      {"measurement": "EC50", "setting": "[1]", "result": 501, "unit": "nM"}
    ]}
  ]
}
